Calls of active or inactive are those of the source. No cut-off for these calls is given here. Square brackets hold non-standard residues; d marks the D form. Peptide text beside a SMILES is read from it. NMeL = CN[C@@H](CC(C)C)C(=O)O
Experiments:
[1] = molecular target: T1, Prolactin receptor (Homo sapiens) (UniProt P16471); assay: (§1) Binding affinity to human prolactin receptor extracellular binding domain by surface plasmon […]
T1 sequence (whole entry): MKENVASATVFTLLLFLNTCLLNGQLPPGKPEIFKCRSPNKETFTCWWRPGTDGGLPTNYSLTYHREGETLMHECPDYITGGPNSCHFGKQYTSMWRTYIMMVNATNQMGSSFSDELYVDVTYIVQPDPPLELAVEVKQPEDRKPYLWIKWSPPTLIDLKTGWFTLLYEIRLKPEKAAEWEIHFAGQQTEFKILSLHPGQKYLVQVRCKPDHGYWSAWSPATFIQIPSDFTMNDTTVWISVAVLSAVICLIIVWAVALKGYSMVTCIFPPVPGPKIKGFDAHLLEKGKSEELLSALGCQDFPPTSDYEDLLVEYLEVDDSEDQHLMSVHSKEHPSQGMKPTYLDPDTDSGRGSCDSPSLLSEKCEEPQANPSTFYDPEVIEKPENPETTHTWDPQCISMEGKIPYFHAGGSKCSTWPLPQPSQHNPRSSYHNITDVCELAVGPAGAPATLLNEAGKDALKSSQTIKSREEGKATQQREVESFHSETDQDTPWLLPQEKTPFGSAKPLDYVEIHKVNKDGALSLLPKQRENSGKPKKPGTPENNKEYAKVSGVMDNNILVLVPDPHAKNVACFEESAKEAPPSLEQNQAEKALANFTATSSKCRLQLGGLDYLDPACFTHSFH

Prolactin receptor = molecular target: T2, Prolactin receptor (Homo sapiens, UniProt P16471); assay: as §1
T2 sequence (P16471 whole entry): T1 sequence (whole entry)

| Structure (SMILES) | Activity [1] | Kd (Prolactin receptor) [µM] |
| --- | --- | --- |
| CC(C)C[C@H]1C(=O)N[C@@H](CCC(N)=O)C(=O)N[C@@H](CCCNC(=N)N)C(=O)N[C@@H](Cc2ccccc2)C(=O)N[C@@H](C(C)C)C(=O)N[C@@H](CCC(=O)O)C(=O)N[C@@H](C)C(=O)NCC(=O)N1C (cyclo(AG[NMeL]QRFVE)) | inactive |  |
| CC(C)[C@@H]1NC(=O)[C@H](CCCNC(=N)N)NC(=O)[C@H](CO)NC(=O)[C@H](CCC(N)=O)NC(=O)[C@H](Cc2ccc(O)cc2)NC(=O)[C@H](CCCNC(=N)N)NC(=O)[C@H](C)NC(=O)[C@H](CCC(=O)O)NC1=O (cyclo(ARYQSRVE)) |  | 2 |
| CC(C)C[C@H]1NC(=O)[C@@H](C)NC(=O)[C@H](CCC(=O)O)NC(=O)[C@H](C(C)C)NC(=O)[C@H](CCCNC(=N)N)NC(=O)[C@H](Cc2ccc(O)cc2)NC(=O)[C@H](CO)NC(=O)[C@H](Cc2ccc(O)cc2)NC1=O |  | 3 |

Source: ChEMBL document CHEMBL1140977, “Synthesis and screening of a cyclic peptide library: discovery of small-molecule ligands against human prolactin receptor” (Bioorg Med Chem, 2009)
